Laboratory results taken from patent US20260226025A1, “PHARMACEUTICALLY ACCEPTABLE SALT AND CRYSTAL FORM OF TRIAZOLE COMPOUND, AND PREPARATION METHOD THEREFOR” (JIANGSU HENGRUI PHARMACEUTICALS CO., LTD., priority 2023, published 2026).

Target: T1, hLPAR1 (human lysophosphatidic acid receptor 1) (Homo sapiens, UniProt Q92633)
T1 construct: host or cells: CHO-K1 (CHO-K1/LPA1R, cultured under hygromycin B selection)
Experiment: FLIPR antagonist property test: LPA-induced intracellular calcium elevation in CHO-K1/LPA1R cells
Format: cell-based
Settings: hLPAR1 expressed in CHO-K1 cells, LPA at EC80, read-out: LPAR1 IC50
Protocol: The antagonist properties of a compound of the present disclosure were assessed using the FLIPR (fluorometric imaging plate reader) method. The compound is an inhibitor of intracellular calcium elevation induced by activation of hLPAR1 (human lysophosphatidic acid receptor 1) expressed in CHO-K1 cells (Chinese hamster ovary K1 cells, HDB). • 1. Experimental reagents and instrument consumables
• 2. Reagent preparation • 2.1. Reaction buffer: HBSS+20 mM HEPES+0.1% fatty acid-free BSA+0.001% F-127 • 2.2. 50× Red dye: (a red dye for blocking background signals in cells) prepared by: weighing out 4 g of tartrazine and 10.2 g of acid red and dissolving them in 100 mL of H2O. • 2.3. Fluo-8 staining mixture: 4 mL of reaction buffer, 32 μL of fluo-8, 320 μL of 50× Red dye, and 40 μL of probenecid. • 3. Compound preparation • 3.1. […] When the cells became round, the digestion was stopped with culture medium F-12 (10% FBS), and the cells were counted. […] An FLIPR was correspondingly programmed, the 6×LPA gradient solutions were added, and readings were taken. […] A reaction curve was obtained from the numerical values of LPA, and the concentration of LPA at EC80 was calculated. […] An FLIPR was correspondingly programmed, the 6×LPA solution was added, and readings were taken. […] Finally, the output fluorescence counts were analyzed, and the IC50 of the compound was calculated. • 5. […]

T1 sequence (Q92633 whole entry): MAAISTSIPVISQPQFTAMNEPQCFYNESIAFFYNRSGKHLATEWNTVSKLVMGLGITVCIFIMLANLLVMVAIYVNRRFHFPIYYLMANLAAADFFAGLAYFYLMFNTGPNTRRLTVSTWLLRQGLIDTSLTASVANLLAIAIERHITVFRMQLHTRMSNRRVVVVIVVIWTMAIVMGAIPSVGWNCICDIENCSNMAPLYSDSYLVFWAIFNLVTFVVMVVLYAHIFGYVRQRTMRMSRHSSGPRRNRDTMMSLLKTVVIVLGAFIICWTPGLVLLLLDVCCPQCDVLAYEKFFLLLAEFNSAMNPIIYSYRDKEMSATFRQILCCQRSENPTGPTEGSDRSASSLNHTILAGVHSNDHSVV

COCc1ccnc(OCc2c(-c3ccc(O[C@H]4C[C@@H]5CC[C@H](C(=O)O)[C@@H]5C4)c(C)n3)nnn2C)n1 [Compound 1-P1, (1S,3aS,5S,6aR)-5-((6-(5-(((4-(methoxymethyl)pyrimidin-2-yl)oxy)methyl)-1-methyl-1H-1,2,3-triazol-4-yl)-2-methylpyridin-3-yl)oxy) octahydropentalene-1-carboxylic acid]
IC50: 8.7 nM
